Data: patent publication US20060247286A1, “Oxazolidinone antibiotics and derivatives thereof” (priority 2003, published 2006)
≈ marks a conversion by molar mass, not a printed value.

What was measured:
Assay type in all cases: cell-based
[1] = system: Enterococcus faecium VRQR (vancomycin resistant, quinolone resistant); assay: MIC, agar dilution method, Mueller-Hinton agar with 5% defibrinated horse blood; conditions: 35° C., 5% CO2, 24 hours
Procedure: (§1) The following in vitro results were obtained based on an agar dilution method except for C. pneumoniae. The activity is presented as the minimum inhibitory concentration (MIC).
(§2) Streptococci and enterococci were tested on Mueller-Hinton agar supplemented with 5% defibrinated horse blood, using an approximate inoculum of 1×10^4 cfu/spot an incubation temperature of 35° C. in an atmosphere of 5% CO2 for 24 hours. The MIC was defined as the lowest concentration at which no visible bacterial growth was observed.

[2] = system: Streptococcus pneumoniae IID553; assay: as above; conditions: 35° C., 5% CO2, 24 hours
Procedure: as §1, §2

[3] = system: Streptococcus pneumoniae PRQR (penicillin resistant, quinolone resistant); assay: as above; conditions: 35° C., 5% CO2, 24 hours
Procedure: as §1, §2

[4] = system: Streptococcus pyogenes IID692; assay: as above; conditions: 35° C., 5% CO2, 24 hours
Procedure: as §1, §2

[5] = system: Moraxella catarrhalis ATCC25238; assay: MIC, agar dilution method, Mueller-Hinton agar; conditions: 1×10^4 cfu/spot, 35° C., 24 hours
Procedure: as §1
(§3) S. aureus and M. catarrhalis were tested on Mueller-Hinton agar, using an approximate inoculum of 1×10^4 cfu/spot an incubation temperature of 35° C. for 24 hours. The MIC was defined as the lowest concentration at which no visible bacterial growth was observed.

[6] = system: Staphylococcus aureus CR (chloramphenicol resistant); assay: MIC, agar dilution method, Mueller-Hinton agar; conditions: 1×10^4 cfu/spot, 35° C., 24 hours
Procedure: as §1, §3

[7] = system: Staphylococcus aureus MR (methicillin resistant); assay: MIC, agar dilution method, Mueller-Hinton agar; conditions: 1×10^4 cfu/spot, 35° C., 24 hours
Procedure: as §1, §3

[8] = system: Staphylococcus aureus Smith; assay: MIC, agar dilution method, Mueller-Hinton agar; conditions: 1×10^4 cfu/spot, 35° C., 24 hours
Procedure: as §1, §3

SMILES | MIC [1] [µg/mL] | MIC [2] [µg/mL] | MIC [3] [µg/mL] | MIC [4] [µg/mL] | MIC [5] [µg/mL] | MIC [6] [µg/mL] | MIC [7] [µg/mL] | MIC [8] [µg/mL]
CC(=O)NC[C@H]1CN(c2ccc([C@@]3(C#N)[C@@H]4CN(C(=O)CO)C[C@@H]43)cc2)C(=O)O1 [Example 8, N-[5(S)-3-[4-[(1α,5α,6β)-(6-Cyano-3-hydroxyacetyl-3-azabicyclo[3.1.0]hexan-6-yl)]phenyl]-2-oxooxazolidin-5-ylmethyl]acetamide] | 0.5 (≈ 1.25 µM) | 0.5 (≈ 1.25 µM) | 0.5 (≈ 1.25 µM) | 0.5 (≈ 1.25 µM) | 2 (≈ 5.02 µM) | 2 (≈ 5.02 µM) | 1 (≈ 2.51 µM) | 1 (≈ 2.51 µM)
CC(=O)NC[C@H]1CN(c2ccc([C@@]3(C#N)[C@@H]4CN(S(C)(=O)=O)C[C@@H]43)cc2)C(=O)O1 [Example 9, N-[5(S)-3-[4-[(1α,5α,6β)-(6-Cyano-3-methanesulfonyl-3-azabicyclo[3.1.0]hexan-6-yl)]phenyl]-2-oxooxazolidin-5-ylmethyl]acetamide] | 0.5 (≈ 1.19 µM) | 0.5 (≈ 1.19 µM) | 0.5 (≈ 1.19 µM) | 0.5 (≈ 1.19 µM) | 2 (≈ 4.78 µM) | 1 (≈ 2.39 µM) | 0.5 (≈ 1.19 µM) | 0.5 (≈ 1.19 µM)
CC(=O)NC[C@H]1CN(c2ccc(N3CCOCC3)c(F)c2)C(=O)O1 [Linezolid, reference compound] | 2 (≈ 5.93 µM) | 2 (≈ 5.93 µM) | 1 (≈ 2.96 µM) | 1 (≈ 2.96 µM) | 4 (≈ 11.9 µM) | 16 (≈ 47.4 µM) | 1 (≈ 2.96 µM) | 1 (≈ 2.96 µM)

Now those with a lower MIC [1], led by results:

MIC [1] [µg/mL] | MIC [2] [µg/mL] | MIC [3] [µg/mL] | MIC [4] [µg/mL] | MIC [5] [µg/mL] | MIC [6] [µg/mL] | MIC [7] [µg/mL] | MIC [8] [µg/mL] | SMILES
0.25 (≈ 0.737 µM) | 0.5 (≈ 1.47 µM) | 0.25 (≈ 0.737 µM) | 0.5 (≈ 1.47 µM) | 0.5 (≈ 1.47 µM) | 2 (≈ 5.89 µM) | 0.25 (≈ 0.737 µM) | 0.25 (≈ 0.737 µM) | CC(=O)NC[C@H]1CN(c2ccc([C@@]3(C#N)[C@@H]4CCC[C@@H]43)cc2)C(=O)O1 [Example 1, N-[5(S)-3-[4-[(1α,5α,6β)-(6-Cyanobicyclo[3.1.0]hexan-6-yl)]phenyl]-2-oxooxazolidin-5-ylmethyl]acetamide]
0.25 (≈ 0.684 µM) | 0.25 (≈ 0.684 µM) | 0.25 (≈ 0.684 µM) | 0.125 (≈ 0.342 µM) | 1 (≈ 2.74 µM) | 1 (≈ 2.74 µM) | 0.5 (≈ 1.37 µM) | 0.25 (≈ 0.684 µM) | CC(=O)NC[C@H]1CN(c2ccc([C@@]3(C#N)[C@@H]4CN(C#N)C[C@@H]43)cc2)C(=O)O1 [Example 11, N-[5(S)-3-[4-[(1α,5α,6β)-(3,6-Dicyano-3-azabicyclo[3.1.0]hexan-6-yl)]phenyl]-2-oxooxazolidin-5-ylmethyl]acetamide]
